The values that follow come from patent US20070155832A1, “Use of sulfonamide compounds for the treatment of diabetes and/or obesity” (priority 2003, published 2007).

Structures are written as SMILES.

Holding throughout (assay type): biochemical
Assay [1] concerns DGAT1 and DGAT2. Description: DGAT inhibition (DGAT1 and DGAT2) in human liver microsomes. As to the method: (§1) The ability of compounds to inhibit DGAT can be measured as described in Coleman (1992) Methods in Enzymology 209, 98-102.
(§2) The inhibitory activity of sulfamic acid [[2,4,6-tris(1-methylethyl)phenyl]acetyl-2,6-bis(1-methylethyl)phenyl ester against DGAT1, DGAT2 and ACAT was measured in rat and human liver microsomes. DGAT1 and DGAT2 can be distinguished since DGAT2 is not active at high magnesium concentrations (concentrations of 50 mM or higher) whilst DGAT1 retains its activity at high magnesium concentrations.
(§3) The results obtained, expressed as the concentration of inhibitor at which 50% of the enzyme activity is inhibited, i.e. the IC50, are as follows: […]

In assay [2] the target is T1, DGAT1 (Rattus norvegicus, UniProt Q9ERM3).
T1 construct: from tissue; host or cells: rat liver microsomes
T1 sequence (Q9ERM3 1-498): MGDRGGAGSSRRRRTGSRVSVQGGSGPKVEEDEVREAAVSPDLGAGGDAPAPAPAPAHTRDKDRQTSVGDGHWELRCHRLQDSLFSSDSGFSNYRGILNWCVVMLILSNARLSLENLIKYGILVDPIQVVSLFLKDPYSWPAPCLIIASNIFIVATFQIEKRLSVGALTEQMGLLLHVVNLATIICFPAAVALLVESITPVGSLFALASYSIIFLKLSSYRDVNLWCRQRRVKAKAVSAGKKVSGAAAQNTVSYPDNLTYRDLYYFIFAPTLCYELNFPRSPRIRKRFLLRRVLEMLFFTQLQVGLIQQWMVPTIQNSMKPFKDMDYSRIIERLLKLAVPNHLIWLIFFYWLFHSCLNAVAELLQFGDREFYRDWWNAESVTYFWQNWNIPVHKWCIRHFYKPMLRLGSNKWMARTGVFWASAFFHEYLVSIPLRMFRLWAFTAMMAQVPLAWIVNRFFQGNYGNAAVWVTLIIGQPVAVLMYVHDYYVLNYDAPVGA
Description: DGAT1 inhibition at 100 mM Mg in rat liver microsomes. The protocol:
as §1, §2, §3

In assay [3] the test system is ACAT. Description: ACAT inhibition in rat liver microsomes.
Source text: (§4) The ability of compounds to inhibit ACAT can be measured using an in-vitro test described in Field & Salone (1982) Biochemica et Biophysica, 712, 557-570. The test assesses the ability of a test compound to inhibit the acylation of cholesterol by oleic acid by measuring the amount of radiolabeled cholesterol oleate formed from radiolabeled oleic acid in a tissue preparation containing rat liver microsomes.
as §2

Assay [4] has as its system ACAT. Description: ACAT inhibition in human liver microsomes.
Source text: as §4, §2

Assay [5] has as its target T2, DGAT1 (Homo sapiens, UniProt O75907).
T2 construct: from tissue; host or cells: human liver microsomes
T2 sequence (O75907 1-488): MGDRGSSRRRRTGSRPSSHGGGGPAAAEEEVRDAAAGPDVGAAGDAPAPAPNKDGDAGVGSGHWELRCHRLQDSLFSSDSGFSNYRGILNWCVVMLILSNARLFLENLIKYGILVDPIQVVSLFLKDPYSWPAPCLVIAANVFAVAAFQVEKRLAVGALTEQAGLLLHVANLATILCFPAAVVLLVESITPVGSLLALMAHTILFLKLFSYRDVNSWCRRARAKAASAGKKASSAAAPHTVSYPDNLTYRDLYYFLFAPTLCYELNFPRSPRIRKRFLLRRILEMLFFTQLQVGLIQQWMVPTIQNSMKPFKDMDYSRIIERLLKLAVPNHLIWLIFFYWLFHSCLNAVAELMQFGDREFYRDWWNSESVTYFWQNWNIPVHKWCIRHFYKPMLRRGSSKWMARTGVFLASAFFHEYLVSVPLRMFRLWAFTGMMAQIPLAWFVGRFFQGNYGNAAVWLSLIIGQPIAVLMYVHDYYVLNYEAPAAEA
Description: DGAT1 inhibition at 100 mM Mg in human liver microsomes. The protocol:
as §1, §2, §3

Assay [6] deals with DGAT1 and DGAT2. Description: DGAT inhibition (DGAT1 and DGAT2) in rat liver microsomes. The protocol:
as §1, §2, §3

In the case of `CC(C)c1cc(C(C)C)c(CC(=O)NS(=O)(=O)Oc2c(C(C)C)cccc2C(C)C)c(C(C)C)c1` [sulfamic acid [[2,4,6-tris(1-methylethyl)phenyl]acetyl-2,6-bis(1-methylethyl)phenyl ester], the IC50 worked out at 7.95 µM in the assay with DGAT1 and DGAT2 [1]; 2.28 µM on DGAT1 [2]; 1.03 µM in the assay on ACAT [3]; 5.67 µM with ACAT [4]; 3.03 µM against DGAT1 [5]; 3.41 µM with DGAT1 and DGAT2 [6].
